Patent US20060156421A1, “High throughput screening methods for anti-metastatic compounds” (priority 2004, published 2006)

Columns and labels:
dRet = assay: Drosophila screening: rough eye phenotype of GMR-dRet flies fed compound in microtiter wells; type: in vivo, Drosophila melanogaster; conditions: compound in growth medium
Procedure: (§1) Accordingly, methods, related apparatus and kits for high throughput screening assays involve the preparation of microtiter plates each with multiple wells, wherein each well initially contains one or more Drosophila embryos with a transgene and an amount of a Drosophila growth medium. The embryos develop while feeding on the growth medium. The precise age of the embryos at the time they are plated matters less than the fact that they are all about the same age, to permit accurate evaluation of the possible effects of the candidate compound on larval and pupal development.
To prepare the microtiter plates, for example, 96-well microtiter plates are used, such as those commonly commercially available and typically used for various laboratory assay techniques, including other high throughput drug assay techniques. Into each well is pipetted 50-100 μl of standard Drosophila growth medium. An exemplary range of about 50 to about 100 μl is a balance between (i) providing sufficient food so as not to place undue feeding stress on the developing flies and (ii) providing sufficient air space for the third larval instars to find sufficient wall space to pupate and for minimal stress on the developing larvae and pupae. Any one of several standard Drosophila growth medium recipes as known in the art of breeding Drosophila for research can be used. […]

Drosophila = Drosophila melanogaster, in vivo
Description: Lethality of candidate compounds for Drosophila can be used to detect and quantify toxicity of candidate compounds. Well known standard statistical methods are used to help distinguish chance results from real toxic effects. Lethality is quantified, for example, by determining the number of Drosophila that fail to develop successfully to adulthood and applying suitable statistical analyses to determine statistical significance. Lethal dose evaluations can be used to quantify the extent of toxicity. […] In another exemplary example, the emergence of most Drosophila adults within a microwell indicates a lowered probability that an introduced compound is toxic.
FIG. 3 illustrates in part the results of screening compound ZD6474 according to the screening methods of the present invention. […] Therefore, the estimated therapeutic index (ratio of concentrations that are toxic to Drosophila to concentrations that reduce the retinal phenotype is […].

dRet^MEN2B = assay: Drosophila screening: rough eye phenotype of GMR-dRet^MEN2B flies fed compound in microtiter wells; type: in vivo, Drosophila melanogaster
Procedure: as §1
To prepare the microtiter plates, for example, 96-well microtiter plates are used, such as those commonly commercially available and typically used for various laboratory assay techniques, including other high throughput drug assay techniques. Into each well is pipetted 50-100 μl of standard Drosophila growth medium. An exemplary range of about 50 to about 100 μl is a balance between (i) providing sufficient food so as not to place undue feeding stress on the developing flies and (ii) providing sufficient air space for the third larval instars to find sufficient wall space to pupate and for minimal stress on the developing larvae and pupae. Any one of several standard Drosophila growth medium recipes as known in the art of breeding Drosophila for research can be used.
In an exemplary embodiment, a candidate compound, or cocktail of more than one compound, that has been selected for screening is prepared in EtOH or DMSO/aqueous solution. In an exemplary embodiment, EtOH is used. Although DMSO can be used, it can be toxic if it reaches final concentrations of more than 0.3% of the growth medium. The compound in solution is added and allowed to diffuse through the growth medium for an initial period of about 16 to about 24 hours. Alternatively, the compound in solution is mixed with the food by pipetting, by shaking, or by sonicating. […]

Ret = conditions: previously tested, Carlomagno et al., 2002; cited from earlier work
VEGF-class receptors = conditions: literature citations; cited from earlier work

SMILES: COc1cc2c(Nc3ccc(Br)cc3F)ncnc2cc1OCC1CCN(C)CC1 [ZD6474]
- inhibition of severity of the rough eye phenotype of dRet (dRet): strongly inhibit
- concentrations at which toxicity was observed (Drosophila): ≥ 2500 µM
- estimated therapeutic index (ratio of concentrations toxic to Drosophila to concentrations that reduce the retinal phenotype) (Drosophila): 31
- inhibition of severity of the rough eye phenotype of dRet^MEN2B (dRet^MEN2B; Drosophila eye, compound in growth medium): strongly inhibit
- rescue of the dRet^MEN2B phenotype (dRet^MEN2B; FIG. 3 panels, varying concentration): concentration-dependent
- doses at which at least partial rescue was observed (dRet^MEN2B; retinal phenotype, lowest effective concentration): ≥ 0.04 mM
- effect on Ret activity in a tissue culture model (Ret): reduce Ret activity
- efficacy for VEGF-class receptors (VEGF-class receptors): some efficacy
